We go through 30 compounds from patent US9493446B2, “Orexin receptor antagonists which are [ortho bi-(hetero-)aryl]-[2-(meta bi-(hetero-)aryl)-pyrrolidin-1-yl]-methanone derivatives” (Actelion Pharmaceuticals Ltd, priority 2012, dated 2016).

One assay concerns the target orexin-1 (Homo sapiens (Human), UniProt O43613). In words: Intracellular calcium measurement (FLIPR), CHO cells expressing human orexin-1 receptor, 3 nM orexin-A. It is filed as cell-based. Conditions: read-out: IC50 OX1. Summed up: (§1)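 CHO cells stably expressing each receptor were loaded with 3 μM fluo-4 AM plus 5 mM probenecid for 50 min at 37 °C, then equilibrated 30 min at rt.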

Another assay deals with human orexin-2 receptor (Homo sapiens (Human), UniProt O43614). In words: Intracellular calcium measurement (FLIPR), CHO cells expressing human orexin-2 receptor, 3 nM orexin-A. It is filed as cell-based. To be noted: read-out: IC50 OX2. Summed up:
as §1
For orientation: Calcium flux is commonly read through the fluorescence of an indicator in the cells.

Setting [1] is: CHO cells expressing human orexin-1 receptor, FLIPR, 3 nM orexin-A, geometric mean if determined several times.
Where [2] appears, read: CHO cells expressing human orexin-2 receptor, FLIPR, 3 nM orexin-A, geometric mean if determined several times.

Read-outs that look alike come from different tables or passages of the source.

Sequence of orexin-1 (O43613 whole entry): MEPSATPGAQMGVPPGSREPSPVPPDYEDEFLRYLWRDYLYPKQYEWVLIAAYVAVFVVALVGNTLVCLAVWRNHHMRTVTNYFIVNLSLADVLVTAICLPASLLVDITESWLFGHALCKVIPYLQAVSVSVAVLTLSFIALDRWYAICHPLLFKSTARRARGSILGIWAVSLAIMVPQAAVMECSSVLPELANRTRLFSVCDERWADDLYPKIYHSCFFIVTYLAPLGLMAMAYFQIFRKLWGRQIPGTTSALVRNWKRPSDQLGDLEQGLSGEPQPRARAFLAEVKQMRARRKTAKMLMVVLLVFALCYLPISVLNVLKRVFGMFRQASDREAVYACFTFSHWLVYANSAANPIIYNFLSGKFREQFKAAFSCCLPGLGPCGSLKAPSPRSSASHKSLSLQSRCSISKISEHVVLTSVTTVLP
Sequence of human orexin-2 receptor (O43614 whole entry): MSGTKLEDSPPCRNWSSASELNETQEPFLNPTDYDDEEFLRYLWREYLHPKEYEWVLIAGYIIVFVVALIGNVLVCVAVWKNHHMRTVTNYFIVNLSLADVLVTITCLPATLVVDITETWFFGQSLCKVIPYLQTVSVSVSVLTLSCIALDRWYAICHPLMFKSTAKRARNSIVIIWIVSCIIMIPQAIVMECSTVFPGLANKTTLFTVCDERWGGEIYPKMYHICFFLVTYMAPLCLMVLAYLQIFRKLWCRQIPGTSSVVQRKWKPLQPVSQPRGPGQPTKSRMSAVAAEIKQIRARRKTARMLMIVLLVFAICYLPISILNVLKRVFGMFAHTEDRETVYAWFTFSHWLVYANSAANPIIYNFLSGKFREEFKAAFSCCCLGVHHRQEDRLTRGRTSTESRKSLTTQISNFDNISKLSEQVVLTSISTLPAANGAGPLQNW

For orientation: IC50 means the concentration at which inhibition is half-maximal. On to `Cc1c(Cl)cccc1-c1noc([C@@H]2CCCN2C(=O)c2cccc(Cl)c2-n2nccn2)n1` [compound 296], for which the IC50 at orexin-1 (setting [1]) was found to be 582 nM; on human orexin-2 receptor, 272 nM.
With `COc1c(F)cccc1-c1noc([C@@H]2CCCN2C(=O)c2cc(C)ccc2-c2ccccn2)n1` [compound 203, {(S)-2-[3-(3-Fluoro-2-methoxy-phenyl)-[1,2,4]oxadiazol-5-yl]-pyrrolidin-1-yl}-(5-methyl-2-pyridin-2-yl-phenyl)-methanone], the results for the IC50 on orexin-1 (setting [1]) and on human orexin-2 receptor (setting [2]) were 56 nM and 16 nM, respectively.
The like results for `Cc1ccc(-n2nccn2)c(C(=O)N2CCC[C@H]2c2noc(-c3cc(C(F)(F)F)ccn3)n2)c1` [compound 315, (5-Methyl-2-[1,2,3]triazol-2-yl-phenyl)-{(S)-2-[5-(4-trifluoromethyl-pyridin-2-yl)-[1,2,4]oxadiazol-3-yl]-pyrrolidin-1-yl}-methanone] were, in that order, 1050 nM and 2130 nM.
On to `Cc1ccc(-n2nccn2)c(C(=O)N2CCC[C@H]2c2nc(-c3cnccc3C)no2)c1` [compound 58, {(S)-2-[3-(4-Methyl-pyridin-3-yl)-[1,2,4]oxadiazol-5-yl]-pyrrolidin-1-yl}-(5-methyl-2-[1,2,3]triazol-2-yl-phenyl)-methanone], for which the figures for the IC50 at orexin-1 (setting [1]) and on human orexin-2 receptor (setting [2]) were above 5040 nM and 536 nM, respectively.
The like results for `Cc1ccc(-n2nccn2)c(C(=O)N2CCC[C@H]2c2nnc(-c3ccccc3)o2)c1` [compound 439, (5-Methyl-2-[1,2,3]triazol-2-yl-phenyl)-[(S)-2-(5-phenyl-[1,3,4]oxadiazol-2-yl)-pyrrolidin-1-yl]-methanone] were, in that order, 1800 nM and 1410 nM.
Regarding `Cc1onc(-c2ccccc2Cl)c1C(=O)N1CCC[C@H]1c1noc(-c2cccc(Cl)c2C)n1` [Ref 8], the IC50 at orexin-1 (setting [1]) was above 26200 nM; at human orexin-2 receptor (setting [2]), above 21800 nM.
The like results for `COc1c(F)cccc1-c1noc([C@@H]2CCCN2C(=O)c2cc(F)ccc2-n2nccn2)n1` [compound 200, {(S)-2-[3-(3-Fluoro-2-methoxy-phenyl)-[1,2,4]oxadiazol-5-yl]-pyrrolidin-1-yl}-(5-fluoro-2-[1,2,3]triazol-2-yl-phenyl)-methanone] were, in that order, 307 nM and 32 nM.
Take `COc1cc(C(=O)N2CCC[C@H]2c2noc(-c3cccc(Cl)c3C)n2)c(-n2nccn2)cc1C` [compound 320]: the IC50 at orexin-1 (setting [1]) amounted to 25 nM; on human orexin-2 receptor (setting [2]), 1 nM.
As to `Cc1ccc(-n2nccn2)c(C(=O)N2CCC[C@H]2c2nnc(-c3ccccc3)[nH]2)c1` [Example 463, (5-Methyl-2-[1,2,3]triazol-2-yl-phenyl)-[(S)-2-(5-phenyl-4H-[1,2,4]triazol-3-yl)-pyrrolidin-1-yl]-methanone], the values for the IC50 at orexin-1 (setting [1]) and at human orexin-2 receptor (setting [2]) were 704 nM and 209 nM, respectively.
Turning to `Cc1c(Cl)cccc1-c1noc([C@@H]2CCCN2C(=O)c2cccc(F)c2-n2nccn2)n1` [compound 114], the IC50 at orexin-1 is 1080 nM; at human orexin-2 receptor, 83 nM.
`Cc1ccc(C(=O)N2CCC[C@H]2c2nc(-c3ccccc3Cl)no2)c(-n2nccn2)c1` [compound 237]: the IC50 at orexin-1 (setting [1]) worked out at 844 nM; on human orexin-2 receptor (setting [2]) it was 186 nM.
Regarding `COc1ccccc1-c1cnc([C@@H]2CCCN2C(=O)c2cc(C)ccc2-n2nccn2)[nH]1` [Example 516, {(S)-2-[5-(2-Methoxy-phenyl)-1H-imidazol-2-yl]-pyrrolidin-1-yl}-(5-methyl-2-[1,2,3]triazol-2-yl-phenyl)-methanone], the IC50 on orexin-1 (setting [1]) and on human orexin-2 receptor (setting [2]) was 18 nM each time.
Regarding `Cc1ccc(-c2ccccn2)c(C(=O)N2CCC[C@H]2c2nc(-c3ccccc3OC(F)F)no2)c1` [compound 191, {(S)-2-[3-(2-Difluoromethoxy-phenyl)-[1,2,4]oxadiazol-5-yl]-pyrrolidin-1-yl}-(5-methyl-2-pyridin-2-yl-phenyl)-methanone], the values for the IC50 at orexin-1 (setting [1]) and on human orexin-2 receptor (setting [2]) were 119 nM and 27 nM, respectively.
For `Cc1ccc(C(=O)N2CCC[C@H]2c2nc(-c3ccccc3OC(F)(F)F)no2)c(-n2nccn2)c1` [compound 147, (4-Methyl-2-[1,2,3]triazol-2-yl-phenyl)-{(S)-2-[3-(2-trifluoromethoxy-phenyl)-[1,2,4]oxadiazol-5-yl]-pyrrolidin-1-yl}-methanone] the same measures were 31 nM and 15 nM.
For the compound `Cc1ccc(-n2nccn2)c(C(=O)N2CCC[C@H]2c2cc(-c3ccccc3OC(F)(F)F)n[nH]2)c1` [compound 532, (5-Methyl-2-[1,2,3]triazol-2-yl-phenyl)-{(S)-2-[5-(2-trifluoromethoxy-phenyl)-2H-pyrazol-3-yl]-pyrrolidin-1-yl}-methanone], the IC50 at orexin-1 (setting [1]) was determined as 286 nM; at human orexin-2 receptor (setting [2]), 146 nM.
On to `Cc1ccc(C(=O)N2CCC[C@H]2c2cc(-c3ccccc3OC(F)(F)F)on2)c(-n2nccn2)c1` [compound 435, (4-Methyl-2-[1,2,3]triazol-2-yl-phenyl)-{(S)-2-[5-(2-trifluoromethoxy-phenyl)-isoxazol-3-yl]-pyrrolidin-1-yl}-methanone], for which the values for the IC50 on orexin-1 (setting [1]) and on human orexin-2 receptor (setting [2]) were 35 nM and 31 nM, respectively.
As for `CCOc1c(F)cccc1-c1nc([C@@H]2CCCN2C(=O)c2ccc(Cl)cc2-n2nccn2)no1` [compound 329], the IC50 on orexin-1 (setting [1]) is 16 nM; at human orexin-2 receptor it was 4 nM.
For the compound `Cc1cccc(-c2nc([C@@H]3CCCN3C(=O)c3cc(C)ccc3-n3nccn3)no2)c1` [compound 305, (5-Methyl-2-[1,2,3]triazol-2-yl-phenyl)-[(S)-2-(5-m-tolyl-[1,2,4]oxadiazol-3-yl)-pyrrolidin-1-yl]-methanone], the results for the IC50 at orexin-1 (setting [1]) and on human orexin-2 receptor (setting [2]) were 164 nM and 74 nM, respectively.
As for `Cc1cc(C)cc(-c2cc([C@@H]3CCCN3C(=O)c3cc(C)ccc3-n3nccn3)on2)c1` [compound 423, {(S)-2-[3-(3,5-Dimethyl-phenyl)-isoxazol-5-yl]-pyrrolidin-1-yl}-(5-methyl-2-[1,2,3]triazol-2-yl-phenyl)-methanone], the IC50 on orexin-1 (setting [1]) stood at 81 nM; on human orexin-2 receptor (setting [2]) it was 39 nM.
`COc1ccc(-n2nccn2)c(C(=O)N2CCC[C@H]2c2nc(-c3ccccc3OC)no2)c1` [compound 232, {(S)-2-[3-(2-Methoxy-phenyl)-[1,2,4]oxadiazol-5-yl]-pyrrolidin-1-yl}-(5-methoxy-2-[1,2,3]triazol-2-yl-phenyl)-methanone]: the IC50 at orexin-1 (setting [1]) was 134 nM; on human orexin-2 receptor (setting [2]), 78 nM.
For `CCOc1ncccc1-c1noc([C@@H]2CCCN2C(=O)c2cc(OC)c(OC)cc2-n2nccn2)n1` [compound 226, (4,5-Dimethoxy-2-[1,2,3]triazol-2-yl-phenyl)-{(S)-2-[3-(2-ethoxy-pyridin-3-yl)-[1,2,4]oxadiazol-5-yl]-pyrrolidin-1-yl}-methanone] the same measures were 160 nM and 148 nM.
The like results for `CCOc1ncccc1-c1nnc([C@@H]2CCCN2C(=O)c2cc(OC)c(C)cc2-n2nccn2)[nH]1` [compound 479, {(S)-2-[5-(2-Ethoxy-pyridin-3-yl)-4H-[1,2,4]triazol-3-yl]-pyrrolidin-1-yl}-(5-methoxy-4-methyl-2-[1,2,3]triazol-2-yl-phenyl)-methanone] were, in that order, 21 nM and 17 nM.
For `COc1c(F)cccc1-c1cc([C@@H]2CCCN2C(=O)c2cc(C)ccc2-n2nccn2)on1` [compound 429, {(S)-2-[3-(3-Fluoro-2-methoxy-phenyl)-isoxazol-5-yl]-pyrrolidin-1-yl}-(5-methyl-2-[1,2,3]triazol-2-yl-phenyl)-methanone] the same measures were 98 nM and 26 nM.
Regarding “Furan-3-yl-[(S)-2-(3-phenyl-[1,2,4]oxadiazol-5-yl)-pyrrolidin-1-yl]-methanone [Reference compound 4, reference compound]”, the results for the IC50 at orexin-1 and on human orexin-2 receptor (setting [2]) were above 5040 nM and 897 nM, respectively.
Consider `CCOc1ncccc1-c1nc([C@@H]2CCCN2C(=O)c2cc(Cl)ccc2-n2nccn2)no1` [compound 346], for which the IC50 came out at 23 nM on orexin-1 (setting [1]) and 2 nM at human orexin-2 receptor (setting [2]).
Regarding `Cc1ccc(C(=O)N2CCC[C@H]2c2cc(-c3ccccc3OC(F)(F)F)n[nH]2)c(-n2nccn2)c1` [compound 533, (4-Methyl-2-[1,2,3]triazol-2-yl-phenyl)-{(S)-2-[5-(2-trifluoromethoxy-phenyl)-2H-pyrazol-3-yl]-pyrrolidin-1-yl}-methanone], the IC50 turned out to be 258 nM at orexin-1 (setting [1]) and 81 nM on human orexin-2 receptor (setting [2]).
For `CCOc1ncccc1-c1nnc([C@@H]2CCCN2C(=O)c2ccc(Cl)cc2-n2nccn2)[nH]1` [compound 481] the same measures were 26 nM and 21 nM.
The like results for `Cc1ccc(-n2nccn2)c(C(=O)N2CCC[C@H]2c2noc(-c3cc(C)ccc3C)n2)c1` [compound 390, {(S)-2-[5-(2,5-Dimethyl-phenyl)-[1,2,4]oxadiazol-3-yl]-pyrrolidin-1-yl}-(5-methyl-2-[1,2,3]triazol-2-yl-phenyl)-methanone] were, in that order, 73 nM and 6 nM.
On to `O=C(c1ccccc1-n1nccn1)N1CCC[C@H]1c1nc(-c2ccccc2OC(F)F)no1` [compound 185, {(S)-2-[3-(2-Difluoromethoxy-phenyl)-[1,2,4]oxadiazol-5-yl]-pyrrolidin-1-yl}-(2-[1,2,3]triazol-2-yl-phenyl)-methanone], for which the IC50 stood at 523 nM at orexin-1 (setting [1]) and 75 nM on human orexin-2 receptor (setting [2]).
In the case of `Cc1ccc(-n2nccn2)c(C(=O)N2CCC[C@H]2c2nc(-c3ccnc(C)c3)no2)c1` [compound 68, {(S)-2-[3-(2-Methyl-pyridin-4-yl)-[1,2,4]oxadiazol-5-yl]-pyrrolidin-1-yl}-(5-methyl-2-[1,2,3]triazol-2-yl-phenyl)-methanone], the figures for the IC50 on orexin-1 (setting [1]) and on human orexin-2 receptor (setting [2]) were 6670 nM and 915 nM, respectively.
